Measurements taken from ChEMBL document CHEMBL5726915, “Substituted pyrimidines containing acidic groups as TLR7 modulators” (2019).

Each compound was assayed against T1, Toll-like receptor 7 (Homo sapiens, UniProt Q9NYK1) (assay: HEK TLR7 Assay: HEK-Blue TLR7 cells were purchased from Invivogen (San Diego, Calif.). The following description was taken from the product information sheet."HEK-Blue hTLR7 cells are designed for studying the stimulation of human TLR7 (hTLR7) by monitoring the activation of NF-kB. HEK-Blue hTLR7 cells were obtained by co-transfection of the hTLR7 gene and an optimized secreted embryonic alkaline phosphatase (SEAP) reporter gene into HEK293 cells. The SEAP reporter gene is placed under the control of the IFN-b minimal promoter fused to five NF-kB and AP-1-binding sites. Stimulation with a TLR7 ligand activates NF-kB and AP-1 which induce the production of SEAP, which is detected by the HEK-Blue™ Detection cell culture medium."A typical assay protocol involved the following steps:1. Cells were cultured according to the product information sheet.2. 10 mM compound stock in DMSO were first diluted to 3 mM and then 3-fold serially diluted using DMSO to afford a 10-pt dilution.3. 3 μl of the diluted DMSO were added to 57 μl HEK-Blue Detection media for a further 20-fold dilution.4. 10 μl of the diluted compound in assay media were added into 40 μl cell culture (in HEK-Blue™ Detection media) in 384-well plate. Final cell concentration=8,000 cells per well.5. The plates were incubated at 37° C. in 5% CO2 for 16 h. SEAP was determined using a spectrophotometer at 620-655 nm.).
T1 sequence (Q9NYK1 whole entry): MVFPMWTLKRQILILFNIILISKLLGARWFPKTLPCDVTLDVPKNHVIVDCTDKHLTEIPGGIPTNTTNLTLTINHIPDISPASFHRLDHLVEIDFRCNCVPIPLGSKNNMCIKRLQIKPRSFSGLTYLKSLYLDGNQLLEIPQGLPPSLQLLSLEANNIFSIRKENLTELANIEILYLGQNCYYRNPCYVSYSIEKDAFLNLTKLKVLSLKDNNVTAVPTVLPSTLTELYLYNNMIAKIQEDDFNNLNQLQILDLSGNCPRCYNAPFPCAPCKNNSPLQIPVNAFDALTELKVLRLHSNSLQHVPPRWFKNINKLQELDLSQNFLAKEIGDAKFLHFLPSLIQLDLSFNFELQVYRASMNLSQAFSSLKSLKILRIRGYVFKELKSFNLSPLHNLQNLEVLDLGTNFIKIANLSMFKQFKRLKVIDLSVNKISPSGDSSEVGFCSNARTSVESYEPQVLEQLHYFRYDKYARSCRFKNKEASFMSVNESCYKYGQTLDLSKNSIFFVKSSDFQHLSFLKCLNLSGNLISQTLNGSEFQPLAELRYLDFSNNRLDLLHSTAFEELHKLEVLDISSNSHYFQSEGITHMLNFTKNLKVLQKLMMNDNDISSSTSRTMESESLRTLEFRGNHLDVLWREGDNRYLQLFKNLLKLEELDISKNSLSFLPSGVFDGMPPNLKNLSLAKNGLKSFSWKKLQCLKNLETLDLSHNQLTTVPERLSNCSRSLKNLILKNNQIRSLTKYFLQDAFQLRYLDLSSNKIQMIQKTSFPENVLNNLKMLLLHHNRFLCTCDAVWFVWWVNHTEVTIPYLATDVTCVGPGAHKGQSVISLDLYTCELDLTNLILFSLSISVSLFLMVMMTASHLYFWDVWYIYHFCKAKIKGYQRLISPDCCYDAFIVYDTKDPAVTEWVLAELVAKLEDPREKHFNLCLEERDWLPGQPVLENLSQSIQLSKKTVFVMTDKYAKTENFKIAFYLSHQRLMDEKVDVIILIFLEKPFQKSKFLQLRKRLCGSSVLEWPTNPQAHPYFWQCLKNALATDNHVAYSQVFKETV

| EC50 [µM] | SMILES |
| --- | --- |
| < 0.1 | CCCC[C@@H](CCSC)Nc1nc(N)nc(C)c1Cc1cc(C(=O)NCCCP(=O)(O)O)ccc1OC |
| < 0.1 | CCCC[C@@H](CCSC)Nc1nc(N)nc(C)c1Cc1cc(Cc2nn[nH]n2)ccc1OC |
| < 0.1 | CCCC[C@@H](CCS(C)(=O)=O)Nc1nc(N)nc(C)c1Cc1cc(Cc2nn[nH]n2)ccc1OC |
